Reference: patent US20060293315A1, “Intermediates of novel heterocyclic compounds having antibacterial activity and process for their preparation” (Dr. Reddy's Laboratories Ltd., priority 2001, published 2006)
Converted amounts (≈) assume the structure as drawn.

How the values were obtained:
[1] = system: Staphylococcus aureus 019 MRSA (ATCC 33591); test: MIC by broth microdilution, Staphylococcus aureus 019 MRSA; type: cell-based; conditions: DRCC 019, MRSA, broth microdilution in MHB, read-out: Antimicrobial Screening (MIC) Staphylococcus aureus 019 MRSA
Procedure: (§1) Minimum Inhibiton Concentrations (MICs) were determined by broth microdilution technique as per the guidelines prescribed in the fifth edition of Approved Standards, NCCLS document M7-A5 Vol 20-No 2, 2000 Villinova, Pa.
(§2) Initial stock solution of the test compound was prepared in DMSO. Subsequent two fold dilutions were carried out in sterile Mueller Hinton Broth (Difco) (MHB).
(§3) Frozen cultures stocks were inoculated into 50 ml sterile MHB in 250 ml Erlyn Meyer flasks.
(§4) Composition of MHB is as follows:
(§5) Flasks were incubated for 4 to 5 h at 35° C. on a rotary shaker at 150 rpm. Inoculum was prepared by diluting the culture in sterile MHB to obtain a turbidity of 0.5 McFarland standard. This corresponds to 1-2×10^8 CFU/ml. The stock was further diluted in sterile broth to obtain 1-2×10^6 CFU/ml. 50 μl of the above diluted inoculum was added from 1-10 wells. The plates were incubated overnight at 37° C.

[2] = system: Staphylococcus aureus 213 Smith S (ATCC 49951); test: MIC by broth microdilution, Staphylococcus aureus 213 Smith S; type: cell-based; conditions: ATCC49951, DRCC 213, Smith S, broth microdilution in MHB, read-out: Antimicrobial Screening (MIC) Staphylococcus aureus 213 Smith S
Procedure: as §1, §2, §3, §4, §5

[3] = system: Staphylococcus aureus 035 S (ATCC 29213); test: MIC by broth microdilution, Staphylococcus aureus 035 S; type: cell-based; conditions: ATCC29213, DRCC 035, S, broth microdilution in MHB, read-out: Antimicrobial Screening (MIC) Staphylococcus aureus 035 S
Procedure: as §1, §2, §3, §4, §5

[4] = system: Enterococcus sp 034 S (Enterococcus faecalis ATCC 29212); test: MIC by broth microdilution, Enterococcus sp 034 S; type: cell-based; conditions: ATCC29212, DRCC 034, S, broth microdilution in MHB, read-out: Antimicrobial Screening (MIC) Enterococcus sp 034 S
Procedure: as §1, §2, §3, §4, §5

[5] = system: Enterococcus sp 153 R (Enterococcus faecalis NCTC 12201); test: MIC by broth microdilution, Enterococcus sp 153 R; type: cell-based; conditions: NCTC12201, DRCC 153, R, broth microdilution in MHB, read-out: Antimicrobial Screening (MIC) Enterococcus sp 153 R
Procedure: as §1, §2, §3, §4, §5

[6] = system: Enterococcus sp 154 R (Enterococcus faecium NCTC 12202); test: MIC by broth microdilution, Enterococcus sp 154 R; type: cell-based; conditions: NCTC12202, DRCC 154, R, broth microdilution in MHB, read-out: Antimicrobial Screening (MIC) Enterococcus sp 154 R
Procedure: as §1, §2, §3, §4, §5

Mycobacterium MTCC 006 = test: MIC by broth microdilution, Mycobacterium MTCC 006; type: cell-based; conditions: MTCC006, broth microdilution in MHB, read-out: Antimicrobial Screening (MIC) Mycobacterium MTCC 006
Procedure: as §1, §2, §3, §4, §5

Salmorella TA 97 = test: MIC by broth microdilution, Salmorella TA 97; type: cell-based; conditions: read-out: Antimicrobial Screening (MIC) Salmorella TA 97
Procedure: as §1, §2, §3, §4, §5

[7] = system: M. catarrhalis 300 (Moraxella catarrhalis ATCC 25238); test: MIC by broth microdilution, M. catarrhalis 300; type: cell-based; conditions: ATCC25238, DRCC 300, broth microdilution in MHB, read-out: Antimicrobial Screening (MIC) M. catarrhalis 300
Procedure: as §1, §2, §3, §4, §5

[8] = system: H. influenzae 432 (Haemophilus influenzae ATCC 49247); test: MIC by broth microdilution, H. influenzae 432; type: cell-based; conditions: ATCC49247, DRCC 432, broth microdilution in MHB, read-out: Antimicrobial Screening (MIC) H. influenzae 432
Procedure: as §1, §2, §3, §4, §5

[9] = system: H. influenzae 433 (Haemophilus influenzae ATCC 49766); test: MIC by broth microdilution, H. influenzae 433; type: cell-based; conditions: ATCC49766, DRCC 433, broth microdilution in MHB, read-out: Antimicrobial Screening (MIC) H. influenzae 433
Procedure: as §1, §2, §3, §4, §5

[10] = system: H. influenzae 529 (Haemophilus influenzae ATCC 9006); test: MIC by broth microdilution, H. influenzae 529; type: cell-based; conditions: ATCC9006, DRCC 529, broth microdilution in MHB, read-out: Antimicrobial Screening (MIC) H. influenzae 529
Procedure: as §1, §2, §3, §4, §5

SMILES	MIC [1] [µg/mL]	MIC [2] [µg/mL]	MIC [3] [µg/mL]	MIC [4] [µg/mL]	MIC [5] [µg/mL]	MIC [6] [µg/mL]	MIC (Mycobacterium MTCC 006) [µg/mL]	MIC (Salmorella TA 97) [µg/mL]	MIC [7] [µg/mL]	MIC [8] [µg/mL]	MIC [9] [µg/mL]	MIC [10] [µg/mL]	melting point [°C]
COC(=S)NC[C@H]1CN(c2cc(F)c(N3CC(=O)N(C)C3)c(F)c2)C(=O)O1 [Example 164]	0.25 (≈ 0.624 µM)	0.5 (≈ 1.25 µM)	0.5 (≈ 1.25 µM)	0.5 (≈ 1.25 µM)	0.5 (≈ 1.25 µM)	0.5 (≈ 1.25 µM)	4 (≈ 9.99 µM)	16 (≈ 40 µM)	8 (≈ 20 µM)	8 (≈ 20 µM)	16 (≈ 40 µM)	16 (≈ 40 µM)	
CCCOC(=S)NC[C@H]1CN(c2cc(F)c(N3CNC(=O)C3)c(F)c2)C(=O)O1 [Example 165]	1 (≈ 2.41 µM)	1 (≈ 2.41 µM)	1 (≈ 2.41 µM)	2 (≈ 4.83 µM)	2 (≈ 4.83 µM)	2 (≈ 4.83 µM)	32 (≈ 77.2 µM)	32 (≈ 77.2 µM)	> 32	> 32	> 32	> 32	186 to 188
CCOC(=S)NC[C@H]1CN(c2cc(F)c(N3CNC(=O)C3)c(F)c2)C(=O)O1 [Example 166]	0.5 (≈ 1.25 µM)	0.5 (≈ 1.25 µM)	0.5 (≈ 1.25 µM)	1 (≈ 2.5 µM)	1 (≈ 2.5 µM)	1 (≈ 2.5 µM)	32 (≈ 79.9 µM)	32 (≈ 79.9 µM)	32 (≈ 79.9 µM)	> 32	> 32	> 32	178 to 180
CC(C)OC(=S)NC[C@H]1CN(c2cc(F)c(N3CNC(=O)C3)c(F)c2)C(=O)O1 [Example 167]	2 (≈ 4.83 µM)	2 (≈ 4.83 µM)	2 (≈ 4.83 µM)	8 (≈ 19.3 µM)	4 (≈ 9.65 µM)	8 (≈ 19.3 µM)	32 (≈ 77.2 µM)	32 (≈ 77.2 µM)	> 32	> 32	> 32	> 32	176 to 178
COC(=S)NC[C@H]1CN(c2cc(F)c(N3CC(=O)N(CC(=O)OC(C)(C)C)C3)c(F)c2)C(=O)O1 [Example 168]	2 (≈ 4 µM)	2 (≈ 4 µM)	2 (≈ 4 µM)	2 (≈ 4 µM)	1 (≈ 2 µM)	2 (≈ 4 µM)	32 (≈ 63.9 µM)	32 (≈ 63.9 µM)					
COC(=O)CN1CN(c2c(F)cc(N3C[C@H](CNC(=S)OC)OC3=O)cc2F)CC1=O [Example 169]	1 (≈ 2.18 µM)	1 (≈ 2.18 µM)	2 (≈ 4.36 µM)	0.5 (≈ 1.09 µM)	0.5 (≈ 1.09 µM)	1 (≈ 2.18 µM)	8 (≈ 17.5 µM)	32 (≈ 69.8 µM)					
